Key:
human LH receptor = target: T1, human LH receptor (Homo sapiens, UniProt P22888); test: CHO-LH in vitro bioactivity (CRE-luciferase reporter); type: cell-based; conditions: CHO cells stably transfected with the human LH receptor, read-out: EC50 CHO LHR
T1 construct: expressed in transfected cells; host or cells: CHO cells, cotransfected with CRE/promotor-luciferase reporter
Experimental: (§1) It has been shown that compounds of the above mentioned formula I show agonistic LH and FSH activity. […] Typically the FSH activity ranges from an activity of about 1% of the LH agonist stimulation to about 10% of the LH agonist stimulation.
(§2) LH agonistic activity of compounds were tested in Chinese Hamster Ovary (CHO) cells stably transfected with the human receptor and cotransfected with a cAMP responsive element (CRE)/promotor directing the expression of a firefly luciferase reporter gene. Binding of ligand to the Gs-coupled LH receptor will result in an increase of cAMP, which in turn will induce an increased transactivation of the luciferase reporter construct. The luciferase signal was quantified using a luminescence counter. For test compounds, EC50 values (concentration of test compound causing half-maximal (50%) stimulation) were calculated. For that purpose the software program GraphPad PRISM, version 3.0 (GraphPad software Inc., San Diego) was used.

human FSH receptor = target: T2, human FSH receptor (Homo sapiens, UniProt P23945); test: CHO-FSH in vitro bioactivity (CRE-luciferase reporter); type: cell-based; conditions: CHO cells transfected with the human FSH receptor and luciferase reporter gene; read-out: EC50 CHO FSHR
T2 construct: expressed in transfected cells; host or cells: CHO cells, transfected with luciferase reporter gene
T2 sequence (P23945 18-695): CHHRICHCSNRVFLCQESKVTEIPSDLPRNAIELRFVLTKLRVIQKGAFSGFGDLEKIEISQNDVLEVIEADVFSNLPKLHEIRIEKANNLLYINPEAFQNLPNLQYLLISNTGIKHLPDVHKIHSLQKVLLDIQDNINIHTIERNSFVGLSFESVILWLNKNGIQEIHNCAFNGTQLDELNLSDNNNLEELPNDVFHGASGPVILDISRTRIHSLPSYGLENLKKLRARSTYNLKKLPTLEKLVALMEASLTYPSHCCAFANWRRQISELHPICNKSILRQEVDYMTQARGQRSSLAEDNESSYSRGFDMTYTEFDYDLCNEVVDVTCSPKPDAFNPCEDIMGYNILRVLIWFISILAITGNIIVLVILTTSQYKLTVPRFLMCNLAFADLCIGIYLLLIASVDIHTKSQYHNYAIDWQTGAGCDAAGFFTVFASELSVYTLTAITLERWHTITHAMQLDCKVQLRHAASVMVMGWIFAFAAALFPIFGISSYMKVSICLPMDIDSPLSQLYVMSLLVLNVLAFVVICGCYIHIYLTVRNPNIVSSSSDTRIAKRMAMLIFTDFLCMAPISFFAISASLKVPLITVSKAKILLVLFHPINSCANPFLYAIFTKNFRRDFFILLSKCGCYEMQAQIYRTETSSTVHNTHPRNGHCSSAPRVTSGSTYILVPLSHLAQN
Experimental: as §1, §2
In a similar way FSH agonistic activity of compounds was tested in CHO cells transfected with the luciferase reporter gene and the human FSH receptor.

immature female mice = test: In vivo bioactivity: ovulation induction in immature mice; conditions: immature female mice primed with urinary FSH (Humegon 12.5 IU/animal), ova in the oviduct counted 24 hours after treatment
Experimental: To measure LH in vivo activity of compounds, ovulation induction in immature mice can be studied. In this assay immature female mice are primed with urinary FSH and approximately 48 hours later treated with a LH agonistic compound. The animals are killed after LH agonist treatment and the number of ova in the oviduct is microscopically assessed.
To measure in vivo activity of LH/FSH receptor agonistic compounds ovulation induction in immature mice was studied. In this assay immature female mice were primed with urinary FSH (Humegon 12.5 IU/animal). Approximately 48 hours later the animals were treated with a LH/FSH agonistic compound at a dose-level of 50 mg/kg. The animals were killed 24 hours after LH/FSH agonist treatment and the number of ova in the oviduct was microscopically assessed.

T1 sequence (P22888 27-699): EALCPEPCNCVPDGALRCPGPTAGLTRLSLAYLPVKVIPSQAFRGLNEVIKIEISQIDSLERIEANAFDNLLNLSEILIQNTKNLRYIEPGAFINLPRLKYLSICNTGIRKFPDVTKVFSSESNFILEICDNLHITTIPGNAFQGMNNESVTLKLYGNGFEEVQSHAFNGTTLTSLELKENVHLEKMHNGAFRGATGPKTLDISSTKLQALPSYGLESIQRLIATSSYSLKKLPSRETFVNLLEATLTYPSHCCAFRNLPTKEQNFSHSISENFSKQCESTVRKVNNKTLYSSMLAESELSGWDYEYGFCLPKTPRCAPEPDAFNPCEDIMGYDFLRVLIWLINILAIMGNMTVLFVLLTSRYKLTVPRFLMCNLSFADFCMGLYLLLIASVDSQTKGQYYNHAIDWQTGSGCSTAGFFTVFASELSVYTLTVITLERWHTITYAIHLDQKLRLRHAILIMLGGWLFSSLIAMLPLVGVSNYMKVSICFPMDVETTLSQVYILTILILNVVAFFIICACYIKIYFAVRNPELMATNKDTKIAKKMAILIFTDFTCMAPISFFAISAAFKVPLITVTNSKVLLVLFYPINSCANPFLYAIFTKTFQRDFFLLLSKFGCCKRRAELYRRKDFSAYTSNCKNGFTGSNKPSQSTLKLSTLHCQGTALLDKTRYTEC

EC50 (human LH receptor) [nM]	EC50 (human FSH receptor) [nM]	SMILES	mean no. of ova (50 mg/kg p.o.) (immature female mice)
3.86	462	CSc1nc(-c2cccc(NC(=O)CN3CCC3)c2)c2c(N)c(C(=O)NC(C)(C)C)sc2n1 [Example 1, tert-Butyl 5-amino-2-methylthio-4-(3-(2-(azetidin-1-yl)-acetamido)-phenyl)-thieno[2,3-d]pyrimidine-6-carboxamide]	1.6
6.68	480	CSc1nc(-c2cccc(NC(=O)CN3CCCC3)c2)c2c(N)c(C(=O)NC(C)(C)C)sc2n1 [Example 5, tert-Butyl 5-amino-2-methylthio-4-(3-(2-(pyrrolidin-1-yl)-acetamido)-phenyl)-thieno[2,3-d]pyrimidine-6-carboxamide]	–
8.03	1040	CSc1nc(-c2cccc(NC(=O)CN3CCSCC3)c2)c2c(N)c(C(=O)NC(C)(C)C)sc2n1 [Example 3, tert-Butyl 5-amino-2-methylthio-4-(3-(2-(thiomorpholin-4-yl)-acetamido)-phenyl)-thieno[2,3-d]pyrimidine-6-carboxamide]	19.8
2.24	42	CSc1nc(-c2cccc(NC(=O)CN3CCOCC3)c2)c2c(N)c(C(=O)NC(C)(C)C)sc2n1 [Example 2, tert-Butyl 5-amino-2-methylthio-4-(3-(2-(morpholin-4-yl)-acetamido)-phenyl)-thieno[2,3-d]pyrimidine-6-carboxamide]	9.3
6.63	201	CSc1nc(-c2cccc(NC(=O)CN3CCCCC3)c2)c2c(N)c(C(=O)NC(C)(C)C)sc2n1 [Example 4, tert-Butyl 5-amino-2-methylthio-4-(3-(2-(piperidin-1-yl)-acetamido)-phenyl)-thieno[2,3-d]pyrimidine-6-carboxamide]	–
3.17	150	CSc1nc(-c2cccc(NC(=O)CN3CCNCC3)c2)c2c(N)c(C(=O)NC(C)(C)C)sc2n1 [Example 6, tert-Butyl 5-amino-2-methylthio-4-(3-(2-(piperazin-1-yl)-acetamido)-phenyl)-thieno[2,3-d]pyrimidine-6-carboxamide]	–
